From patent US9309248B2, “Azaindolines” (Hoffmann-La Roche Inc., priority 2012, dated 2016)

Experiments:
BIR3 domain of XIAP = biological target: T1, BIR3 domain of XIAP (Homo sapiens, UniProt P98170); test: TR-FRET assay for BIR3 (inhibition of binding of XIAP BIR3 domain to SMAC-derived Peptide A); conditions: 6x Histidine-tagged BIR3 domain (amino acids 241-356 of XIAP) 10 nM, Peptide A 20 nM
T1 construct: BIR3 domain, corresponding to amino acids 241-356 of XIAP
Experimental: (§1) TR-FRET Assay for BIR2 and BIR3
(§2) The ability of a test compound to inhibit the binding of BIR2 and/or BIR3 domains of the XIAP protein to Peptide A (a SMAC-derived peptide described below) evidences that the test compound acts as a SMAC-mimetic resulting in reactivation of a cell's apoptotic pathway.
(§3) The peptides were labeled with the fluorescent tags FITC or TAMRA and Kd values were determined by fluorescence polarization assay. […] The peptide sequence was derivatized with biotin to provide […]-(ε-biotin)-OH 1:2 TFA as the substrate for the TR-FRET assay.
The sequence of the BIR3 domain used for the TR-FRET assay is […]
Ten nanomolar of 6× Histidine-tagged BIR2 domain, corresponding to amino acids 124-240 of XIAP, or BIR3 domain, corresponding to amino acids 241-356 of XIAP, was mixed with 20 nM of the peptide […]-(z-biotin)-OH 1:2 TFA, in the presence of 50 mM Tris-Cl, pH 7.5, 100 mM NaCl, 1 mM dithiothreitol (DTT) and 0.1 mg/mL bovine serum albumin (BSA). Following a […] incubation at 37° C., Europium-Streptavidin and Allophycocyanin conjugated anti-Histidine antibody were added to a final concentration of 1.5 nM and 15 nM, respectively. Time-resolved fluorescence resonance energy transfer (TR-FRET) signals were measured 1 hour later at room temperature. Test compound potency was assessed at 10 serially diluted concentrations. Percentage of inhibition at each concentration was determined to generate an IC50 value for each test compound.

BIR2 domain of XIAP = biological target: T2, BIR2 domain of XIAP (Homo sapiens, UniProt P98170, C202A/C213G); test: TR-FRET assay for BIR2 (inhibition of binding of XIAP BIR2 domain to SMAC-derived Peptide A); conditions: 6x Histidine-tagged BIR2 domain (amino acids 124-240 of XIAP) 10 nM, Peptide A 20 nM
T2 construct: 6× Histidine-tagged BIR2 domain, corresponding to amino acids 124-240 of XIAP
Experimental: as §1, §2, §3
The XIAP protein sequence was obtained from the SWISS-PROT protein sequence database and the BIR2 and BIR3 domains were derived from that. The sequence of the BIR2 domain used for the TR-FRET assay is […].
Time-resolved fluorescence resonance energy transfer (TR-FRET) signals were measured 1 hour later at room temperature. Test compound potency was assessed at 10 serially diluted concentrations. Percentage of inhibition at each concentration was determined to generate an IC50 value for each test compound.

T2 sequence (P98170 with tags, fused parts or gaps C202A/C213G): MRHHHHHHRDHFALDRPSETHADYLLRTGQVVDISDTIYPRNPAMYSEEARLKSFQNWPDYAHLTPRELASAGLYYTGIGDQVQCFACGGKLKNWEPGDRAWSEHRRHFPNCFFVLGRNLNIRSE
T1 sequence (P98170 with tags, fused parts or gaps): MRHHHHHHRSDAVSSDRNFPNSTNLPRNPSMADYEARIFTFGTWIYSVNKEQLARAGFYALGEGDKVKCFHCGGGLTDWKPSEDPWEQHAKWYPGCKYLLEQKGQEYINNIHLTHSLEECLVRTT

## CN[C@@H](C)C(=O)N[C@@H](CCS(C)(=O)=O)C(=O)N1c2ncccc2C[C@H]1C(=O)Nc1ccccc1 [Example 96, 1-[(S)-4-Methanesulfonyl-2-((S)-2-methylamino-propionylamino)-butyryl]-2,3-dihydro-1H-pyrrolo[2,3-b]pyridine-2-carboxylic acid phenylamide]
BIR3 domain of XIAP
  IC50: > 54.8 µM
BIR2 domain of XIAP
  IC50: 0.108 µM

## CN[C@@H](C)C(=O)N[C@H](C(=O)N1c2ncccc2C[C@H]1C(=O)Nc1ccc2ccccc2c1)C(C)C [Example 57, (S)-1-[(S)-3-Methyl-2-((S)-2-methylamino-propionylamino)-butyryl]-2,3-dihydro-1H-pyrrolo[2,3-b]pyridine-2-carboxylic acid naphthalen-2-ylamide]
BIR3 domain of XIAP
  IC50: > 54.8 µM
BIR2 domain of XIAP
  IC50: 0.164 µM

## CCNC(=O)C1Cc2cccnc2N1C(=O)[C@@H](NC(=O)[C@H](C)NC)[C@@H](C)CC (stereo partly drawn) [Example 6, (R,S)-1-[(2S,3S)-3-Methyl-2-((S)-2-methylamino-propionylamino)-pentanoyl]-2,3-dihydro-1H-pyrrolo[2,3-b]pyridine-2-carboxylic acid ethylamide]
BIR3 domain of XIAP
  IC50: > 54.8 µM
BIR2 domain of XIAP
  IC50: 1.28 µM

## CN[C@@H](C)C(=O)N[C@H](C(=O)N1c2ncccc2C[C@H]1C(=O)NC(C)c1ccccc1)C(C)C (stereo partly drawn) [Example 52, (S)-1-[(S)-3-Methyl-2-((S)-2-methylamino-propionylamino)-butyryl]-2,3-dihydro-1H-pyrrolo[2,3-b]pyridine-2-carboxylic acid (1-phenyl-ethyl)-amide]
BIR3 domain of XIAP
  IC50: 21.5 µM
BIR2 domain of XIAP
  IC50: 0.978 µM

## CN[C@@H](C)C(=O)N[C@H](C(=O)N1c2ncccc2C[C@H]1C(=O)Nc1c(C)cccc1F)C(C)C [Example 32, (S)-1-[(S)-3-Methyl-2-((S)-2-methylamino-propionylamino)-butyryl]-2,3-dihydro-1H-pyrrolo[2,3-b]pyridine-2-carboxylic acid (2-fluoro-6-methyl-phenyl)-amide]
BIR3 domain of XIAP
  IC50: > 54.8 µM
BIR2 domain of XIAP
  IC50: 0.00959 µM

## CN[C@@H](C)C(=O)N[C@H](C(=O)N1c2ncccc2C[C@H]1C(=O)Nc1c(Cl)cc(Cl)cc1Cl)C(C)C [Example 72, (S)-1-[(S)-3-Methyl-2-((S)-2-methylamino-propionylamino)-butyryl]-2,3-dihydro-1H-pyrrolo[2,3-b]pyridine-2-carboxylic acid (2,4,6-trichloro-phenyl)-amide]
BIR3 domain of XIAP
  IC50: > 54.8 µM
BIR2 domain of XIAP
  IC50: 0.0137 µM

## [2H]C([2H])([2H])N[C@@H](CC)C(=O)N[C@H](C(=O)N1c2ncccc2C[C@H]1C(=O)Nc1ccccc1)C(C)C [Example 86, (S)-1-[(S)-3-Methyl-2-((S)-2-(d3-methyl)amino-butyrylamino)-butyryl]-2,3-dihydro-1H-pyrrolo[2,3-b]pyridine-2-carboxylic acid phenylamide]
BIR3 domain of XIAP
  IC50: > 54.8 µM
BIR2 domain of XIAP
  IC50: 0.0656 µM

## CN[C@@H](C)C(=O)N[C@H](C(=O)N1c2ncccc2C[C@H]1C(=O)Nc1ccc(F)cc1F)C(C)C [Example 65, (S)-1-[(S)-3-Methyl-2-((S)-2-methylamino-propionylamino)-butyryl]-2,3-dihydro-1H-pyrrolo[2,3-b]pyridine-2-carboxylic acid (2,4-difluoro-phenyl)-amide]
BIR3 domain of XIAP
  IC50: > 54.8 µM
BIR2 domain of XIAP
  IC50: 0.0351 µM

## CN[C@@H](C)C(=O)N[C@H](C(=O)N1c2ncccc2C[C@H]1C(=O)Nc1ccc(F)cc1C)C(C)C [Example 22, (S)-1-[(S)-3-Methyl-2-((S)-2-methylamino-propionylamino)-butyryl]-2,3-dihydro-1H-pyrrolo[2,3-b]pyridine-2-carboxylic acid (4-fluoro-2-methyl-phenyl)-amide]
BIR3 domain of XIAP
  IC50: > 54.8 µM
BIR2 domain of XIAP
  IC50: 0.103 µM

## CN[C@@H](C)C(=O)N[C@H](C(=O)N1c2ncccc2C[C@H]1C(=O)Nc1ccccc1Cl)C(C)C [Example 25, (S)-1-[(S)-3-Methyl-2-((S)-2-methylamino-propionylamino)-butyryl]-2,3-dihydro-1H-pyrrolo[2,3-b]pyridine-2-carboxylic acid (2-chloro-phenyl)-amide]
BIR3 domain of XIAP
  IC50: > 54.8 µM
BIR2 domain of XIAP
  IC50: 0.0254 µM
